In patent US12479840B2, “HMG-CoA reductase degradation inducing compound” (Uppthera, priority 2020, dated 2025) one finds DC50 data, which are given here for 13 compounds.

The target in the experiment is T1, HMG-CoA reductase (Homo sapiens, UniProt P04035).
T1 construct: endogenous in cells; host or cells: HepG2 (Korea Cell Line Bank)
T1 sequence (P04035 1-888): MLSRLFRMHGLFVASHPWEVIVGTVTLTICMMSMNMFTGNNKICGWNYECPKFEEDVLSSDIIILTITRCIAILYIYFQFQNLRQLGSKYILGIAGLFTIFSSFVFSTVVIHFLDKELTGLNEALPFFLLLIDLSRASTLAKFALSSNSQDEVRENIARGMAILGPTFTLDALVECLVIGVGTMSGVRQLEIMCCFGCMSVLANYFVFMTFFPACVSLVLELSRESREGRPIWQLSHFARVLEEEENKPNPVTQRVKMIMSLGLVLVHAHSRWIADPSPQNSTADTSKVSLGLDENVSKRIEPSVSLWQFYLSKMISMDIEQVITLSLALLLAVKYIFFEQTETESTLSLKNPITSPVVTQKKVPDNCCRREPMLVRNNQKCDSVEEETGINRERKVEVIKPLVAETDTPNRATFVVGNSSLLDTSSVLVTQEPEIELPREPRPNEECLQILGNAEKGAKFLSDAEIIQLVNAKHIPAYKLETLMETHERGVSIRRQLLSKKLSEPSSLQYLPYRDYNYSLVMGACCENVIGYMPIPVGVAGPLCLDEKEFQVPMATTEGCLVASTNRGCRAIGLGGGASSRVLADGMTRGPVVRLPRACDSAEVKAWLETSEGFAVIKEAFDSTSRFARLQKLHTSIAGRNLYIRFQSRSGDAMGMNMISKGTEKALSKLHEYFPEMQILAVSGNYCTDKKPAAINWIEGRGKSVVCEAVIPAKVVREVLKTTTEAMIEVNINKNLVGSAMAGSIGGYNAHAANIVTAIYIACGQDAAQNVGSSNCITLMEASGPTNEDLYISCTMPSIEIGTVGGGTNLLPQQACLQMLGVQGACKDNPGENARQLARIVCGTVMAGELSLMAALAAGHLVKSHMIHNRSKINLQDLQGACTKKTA
Put plainly: HMG-CoA reductase (HMGCR) degradation in HepG2 cells by western blotting. The experiment is classed as cell-based. The settings on record: treated for 18 hours, ratio of HMG-CoA reductase to GAPDH, read-out: DC50. The gist of the method:
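Western blot read-out: HMGCR protein probed (1:500, 16 hours at 4° C) alongside GAPDH loading control on 15 μg BCA-normalised RIPA lysates. Lysates came from HepG2 cells (P105–P110) exposed for 18 hours to a 10-point, three-fold series starting at 3 μM.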
On the technique in general: A western blot detects proteins with antibodies after separation by electrophoresis.
Take `C[C@H]1C=C2C=C[C@H](C)[C@H](CC[C@@H]3C[C@@H](O[Si](C)(C)C(C)(C)C)CC(=O)O3)[C@H]2[C@@H](OC(=O)N2CCC(CCOCCNc3cccc4c3C(=O)N(C3CCC(=O)NC3=O)C4=O)CC2)C1` (stereo partly drawn) [Compound 84, (1S,3R,7S,8S,8aR)-8-(2-((2R,4R)-4-((tert-butyldimethylsilyl)oxy)-6-oxotetrahydro-2H-pyran-2-yl)ethyl)-3,7-dimethyl-1,2,3,7,8,8a-hexahydronaphthalen-1-yl4-(2-(2-((2-(2,6-dioxopiperidin-3-yl)-1,3-dioxoisoindolin-4-yl)amino)ethoxy)ethyl)piperidine-1-carboxylate]: the 50% degradation concentration (DC50) is below 50 nM.

As for `C[C@H]1C=C2C=C[C@H](C)[C@H](CC[C@@H]3C[C@@H](O)CC(=O)O3)[C@H]2[C@@H](OC(=O)N2CCC(CCOCCNc3cccc4c3C(=O)N(C3CCC(=O)NC3=O)C4=O)CC2)C1` (stereo partly drawn) [Compound 85, (1S,3R,7S,8S,8aR)-8-(2-((2R,4R)-4-hydroxy-6-oxotetrahydro-2H-pyran-2-yl)ethyl)-3,7-dimethyl-1,2,3,7,8,8a-hexahydronaphthalen-1-yl4-(2-(2-((2-(2,6-dioxopiperidin-3-yl)-1,3-dioxoisoindolin-4-yl)amino)ethoxy)ethyl)piperidine-1-carboxylate], the 50% degradation concentration (DC50) is below 50 nM.

Regarding `C[C@H]1C=C2C=C[C@H](C)[C@H](CC[C@@H]3C[C@@H](O[Si](C)(C)C(C)(C)C)CC(=O)O3)[C@H]2[C@@H](OC(=O)NCCOCCNc2cccc3c2C(=O)N(C2CCC(=O)NC2=O)C3=O)C1` (stereo partly drawn) [Compound 86, (1S,3R,7S,8S,8aR)-8-(2-((2R,4R)-4-((tert-butyldimethylsilyl)oxy)-6-oxotetrahydro-2H-pyran-2-yl)ethyl)-3,7-dimethyl-1,2,3,7,8,8a-hexahydronaphthalen-1-yl (2-(2-((2-(2,6-dioxopiperidin-3-yl)-1,3-dioxoisoindolin-4-yl)amino)ethoxy)ethyl)carbamate], the DC50 was below 50 nM.

`C[C@H]1C=C2C=C[C@H](C)[C@H](CC[C@@H]3C[C@@H](O)CC(=O)O3)[C@H]2[C@@H](OC(=O)NCCOCCNc2cccc3c2C(=O)N(C2CCC(=O)NC2=O)C3=O)C1` (stereo partly drawn) [Compound 87, (1S,3R,7S,8S,8aR)-8-(2-((2R,4R)-4-hydroxy-6-oxotetrahydro-2H-pyran-2-yl)ethyl)-3,7-dimethyl-1,2,3,7,8,8a-hexahydronaphthalen-1-yl (2-(2-((2-(2,6-dioxopiperidin-3-yl)-1,3-dioxoisoindolin-4-yl)amino)ethoxy)ethyl)carbamate]: the DC50 was below 50 nM.

With `C[C@H]1C=C2C=C[C@H](C)[C@H](CC[C@@H]3C[C@@H](O[Si](C)(C)C(C)(C)C)CC(=O)O3)[C@H]2[C@@H](OC(=O)NCCCCOCCCCNc2cccc3c2C(=O)N(C2CCC(=O)NC2=O)C3=O)C1` (stereo partly drawn) [Compound 88, (1S,3R,7S,8S,8aR)-8-(2-((2R,4R)-4-((tert-butyldimethylsilyl)oxy)-6-oxotetrahydro-2H-pyran-2-yl)ethyl)-3,7-dimethyl-1,2,3,7,8,8a-hexahydronaphthalen-1-yl (4-(4-((2-(2,6-dioxopiperidin-3-yl)-1,3-dioxoisoindolin-4-yl)amino)butoxy)butyl)carbamate], the 50% degradation concentration (DC50) is below 50 nM.

Turning to `C[C@H]1C=C2C=C[C@H](C)[C@H](CC[C@@H]3C[C@@H](O)CC(=O)O3)[C@H]2[C@@H](OC(=O)NCCCCOCCCCNc2cccc3c2C(=O)N(C2CCC(=O)NC2=O)C3=O)C1` (stereo partly drawn) [Compound 89, (1S,3R,7S,8S,8aR)-8-(2-((2R,4R)-4-hydroxy-6-oxotetrahydro-2H-pyran-2-yl)ethyl)-3,7-dimethyl-1,2,3,7,8,8a-hexahydronaphthalen-1-yl (4-(4-((2-(2,6-dioxopiperidin-3-yl)-1,3-dioxoisoindolin-4-yl)amino)butoxy)butyl)carbamate], the DC50 is below 50 nM.

Take `C[C@H]1C=C2C=C[C@H](C)[C@H](CC[C@@H]3C[C@@H](O[Si](C)(C)C(C)(C)C)CC(=O)O3)[C@H]2[C@@H](OC(=O)NCCOCCCOCCNc2cccc3c2C(=O)N(C2CCC(=O)NC2=O)C3=O)C1` (stereo partly drawn) [Compound 90, (1S,3R,7S,8S,8aR)-8-(2-((2R,4R)-4-((tert-butyldimethylsilyl)oxy)-6-oxotetrahydro-2H-pyran-2-yl)ethyl)-3,7-dimethyl-1,2,3,7,8,8a-hexahydronaphthalen-1-yl (2-(3-(2-((2-(2,6-dioxopiperidin-3-yl)-1,3-dioxoisoindolin-4-yl)amino)ethoxy)propoxy)ethyl)carbamate]: the DC50 was below 50 nM.

Take `C[C@H]1C=C2C=C[C@H](C)[C@H](CC[C@@H]3C[C@@H](O)CC(=O)O3)[C@H]2[C@@H](OC(=O)NCCOCCCOCCNc2cccc3c2C(=O)N(C2CCC(=O)NC2=O)C3=O)C1` (stereo partly drawn) [Compound 91, (1S,3R,7S,8S,8aR)-8-(2-((2R,4R)-4-hydroxy-6-oxotetrahydro-2H-pyran-2-yl)ethyl)-3,7-dimethyl-1,2,3,7,8,8a-hexahydronaphthalen-1-yl (2-(3-(2-((2-(2,6-dioxopiperidin-3-yl)-1,3-dioxoisoindolin-4-yl)amino)ethoxy)propoxy)ethyl)carbamate]: the DC50 was below 50 nM.

On to `C[C@H]1C=C2C=C[C@H](C)[C@H](CC[C@@H]3C[C@@H](O[Si](C)(C)C(C)(C)C)CC(=O)O3)[C@H]2[C@@H](OC(=O)NCCOCCOCCCNc2cccc3c2C(=O)N(C2CCC(=O)NC2=O)C3=O)C1` (stereo partly drawn) [Compound 92, (1S,3R,7S,8S,8aR)-8-(2-((2R,4R)-4-((tert-butyldimethylsilyl)oxy)-6-oxotetrahydro-2H-pyran-2-yl)ethyl)-3,7-dimethyl-1,2,3,7,8,8a-hexahydronaphthalen-1-yl (2-(2-(3-((2-(2,6-dioxopiperidin-3-yl)-1,3-dioxoisoindolin-4-yl)amino)propoxy)ethoxy)ethyl)carbamate], for which the DC50 was below 50 nM.

Consider `C[C@H]1C=C2C=C[C@H](C)[C@H](CC[C@@H]3C[C@@H](O)CC(=O)O3)[C@H]2[C@@H](OC(=O)NCCOCCOCCCNc2cccc3c2C(=O)N(C2CCC(=O)NC2=O)C3=O)C1` (stereo partly drawn) [Compound 93, (1S,3R,7S,8S,8aR)-8-(2-((2R,4R)-4-hydroxy-6-oxotetrahydro-2H-pyran-2-yl)ethyl)-3,7-dimethyl-1,2,3,7,8,8a-hexahydronaphthalen-1-yl (2-(2-(3-((2-(2,6-dioxopiperidin-3-yl)-1,3-dioxoisoindolin-4-yl)amino)propoxy)ethoxy)ethyl)carbamate], for which the 50% degradation concentration (DC50) was below 50 nM.

Turning to `C[C@H]1C=C2C=C[C@H](C)[C@H](CC[C@@H]3C[C@@H](O[Si](C)(C)C(C)(C)C)CC(=O)O3)[C@H]2[C@@H](OC(=O)NCCCOCCCOCCCNc2cccc3c2C(=O)N(C2CCC(=O)NC2=O)C3=O)C1` (stereo partly drawn) [Compound 94, (1S,3R,7S,8S,8aR)-8-(2-((2R,4R)-4-((tert-butyldimethylsilyl)oxy)-6-oxotetrahydro-2H-pyran-2-yl)ethyl)-3,7-dimethyl-1,2,3,7,8,8a-hexahydronaphthalen-1-yl (3-(3-(3-((2-(2,6-dioxopiperidin-3-yl)-1,3-dioxoisoindolin-4-yl)amino)propoxy)propoxy)propyl)carbamate], the half-maximal degradation concentration (DC50) was below 50 nM.

In the case of `C[C@H]1C=C2C=C[C@H](C)[C@H](CC[C@@H]3C[C@@H](O)CC(=O)O3)[C@H]2[C@@H](OC(=O)NCCCOCCCOCCCNc2cccc3c2C(=O)N(C2CCC(=O)NC2=O)C3=O)C1` (stereo partly drawn) [Compound 95, (1S,3R,7S,8S,8aR)-8-(2-((2R,4R)-4-hydroxy-6-oxotetrahydro-2H-pyran-2-yl)ethyl)-3,7-dimethyl-1,2,3,7,8,8a-hexahydronaphthalen-1-yl (3-(3-(3-((2-(2,6-dioxopiperidin-3-yl)-1,3-dioxoisoindolin-4-yl)amino)propoxy)propoxy)propyl)carbamate], the half-maximal degradation concentration (DC50) was in the range of 50 to 500 nM.

Turning to `C[C@H]1C=C2C=C[C@H](C)[C@H](CC[C@@H]3C[C@@H](O[Si](C)(C)C(C)(C)C)CC(=O)O3)[C@H]2[C@@H](OC(=O)NCCCCCCCCNC(=O)COc2cccc3c2C(=O)N(C2CCC(=O)NC2=O)C3=O)C1` (stereo partly drawn) [Compound 96, (1S,3R,7S,8S,8aR)-8-(2-((2R,4R)-4-((tert-butyldimethylsilyl)oxy)-6-oxotetrahydro-2H-pyran-2-yl)ethyl)-3,7-dimethyl-1,2,3,7,8,8a-hexahydronaphthalen-1-yl (8-(2-((2-(2,6-dioxopiperidin-3-yl)-1,3-dioxoisoindolin-4-yl)oxy)acetamido)octyl)carbamate], the DC50 was 50 to 500 nM.

A word on the DC50: it is the concentration at which degradation of the target reaches its halfway point.
